Reference: ChEMBL document CHEMBL1201862, “PubChem BioAssay data set” (2004)
Active and inactive are the calls of the source.

Columns and labels:
[1] = tested on: HEK293; test: cells; conditions: Homo sapiens
[2] = tested on: HEK293; test: cells; conditions: Homo sapiens; remark: listed apart in the source
[3] = A cytotoxicity screen of small molecule inhibitors of the PhoP region in Salmonella typhi identified in the primary screen. [Related pubchem assays: 1850, 1864, 1985 ]; format: functional
[4] = Luminescence Cell-Based Dose Response to Identify Activators of 5'UTR Stem-Loop Driven Prion Protein mRNA Translation in H4-C Neuroglioblastoma Cells. [Related pubchem assays: 1829 (Project Summary), 1814 (Primary HTS)]; format: functional
[5] = Luminescence Cell-Based Dose Response HTS to Identify Activators of Luciferase Translation or Activity in H4 […] Cells. [Related pubchem assays: 1829 (Project Summary), 1814 (Primary HTS)]; format: functional
[6] = tested on: H4; test: Luminescence Cell-Based Dose Response HTS to Identify Activators of 5'UTR Stem-Loop Driven Prion Protein mRNA Translation in H4 Neuroglioblastoma Cells. [Related pubchem assays: 1829 (Project Summary), 1814 (Primary HTS)]; format: functional; conditions: Homo sapiens
[7] = Luminescence Cell-Based Dose Response to Identify Activators of Luciferase Translation or Activity in H4-C Neuroglioblastoma Cells. [Related pubchem assays: 1829 (Project Summary), 1814 (Primary HTS)]; format: functional
[8] = biological target: T1, Estrogen receptor (Homo sapiens, UniProt P03372);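 also: potency for inhibiting coactivator peptide recruitment to the receptor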
T1 sequence (P03372 whole entry): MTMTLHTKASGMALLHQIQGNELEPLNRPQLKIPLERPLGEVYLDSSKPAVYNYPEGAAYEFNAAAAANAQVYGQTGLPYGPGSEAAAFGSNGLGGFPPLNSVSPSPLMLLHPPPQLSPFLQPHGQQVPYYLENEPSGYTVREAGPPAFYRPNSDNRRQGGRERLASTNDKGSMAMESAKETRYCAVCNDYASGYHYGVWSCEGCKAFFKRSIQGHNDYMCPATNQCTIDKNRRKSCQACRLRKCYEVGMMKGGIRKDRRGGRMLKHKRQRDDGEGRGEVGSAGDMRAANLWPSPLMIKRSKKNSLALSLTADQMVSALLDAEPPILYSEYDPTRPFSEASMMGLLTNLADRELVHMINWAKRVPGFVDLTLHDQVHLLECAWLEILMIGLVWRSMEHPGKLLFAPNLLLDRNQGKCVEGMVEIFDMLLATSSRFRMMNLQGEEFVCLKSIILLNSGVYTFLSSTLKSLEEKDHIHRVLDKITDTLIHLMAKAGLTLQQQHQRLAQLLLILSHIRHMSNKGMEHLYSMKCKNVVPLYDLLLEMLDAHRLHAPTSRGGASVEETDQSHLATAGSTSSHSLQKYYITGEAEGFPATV

[9] = Luminescence Cell-Based Dose Confirmation to Identify Activators of 5'UTR Stem-Loop Driven Alpha-Synuclein mRNA Translation in H4 Neuroglioblastoma Cells. [Related pubchem assays: 1829 (Project Summary), 1814 (Primary HTS)]; format: functional
[10] = biological target: T2, Coagulation factor XII (Homo sapiens, UniProt P00748); format: functional;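 also: activated factor XIIa alpha cleaving a fluorogenic AMC peptide substrate; inhibitor potency from loss of enzyme activity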
T2 sequence (P00748 whole entry): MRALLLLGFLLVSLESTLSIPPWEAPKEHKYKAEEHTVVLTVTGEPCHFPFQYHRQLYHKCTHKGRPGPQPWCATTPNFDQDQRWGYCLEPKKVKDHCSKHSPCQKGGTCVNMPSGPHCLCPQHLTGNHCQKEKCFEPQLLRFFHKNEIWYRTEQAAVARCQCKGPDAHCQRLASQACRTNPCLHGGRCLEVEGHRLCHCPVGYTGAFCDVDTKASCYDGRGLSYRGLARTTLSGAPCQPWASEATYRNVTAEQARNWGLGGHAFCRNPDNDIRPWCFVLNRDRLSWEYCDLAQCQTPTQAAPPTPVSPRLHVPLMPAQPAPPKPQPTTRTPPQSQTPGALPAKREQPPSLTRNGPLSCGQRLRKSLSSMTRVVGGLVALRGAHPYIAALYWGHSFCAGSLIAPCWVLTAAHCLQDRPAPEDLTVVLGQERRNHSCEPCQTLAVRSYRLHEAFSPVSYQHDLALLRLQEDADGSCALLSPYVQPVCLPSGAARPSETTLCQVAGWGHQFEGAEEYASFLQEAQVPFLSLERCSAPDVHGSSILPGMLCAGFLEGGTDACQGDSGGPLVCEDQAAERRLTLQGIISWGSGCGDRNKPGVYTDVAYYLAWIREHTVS

[11] = A Cell Based Secondary Assay To Explore Cytotoxicity of Compounds that Sensitize Mycobacterium Tuberculosis to Beta-Lactam Antibiotics.; format: functional
[12] = biological target: SUMO-activating enzyme (Homo sapiens, UniProt Q9UBT2); test: blockers of UBC9-mediated SUMO conjugation – biochemical, AlphaScreen, SUMOylation inhibitor project, confirmation (AID 2018); format: functional
SUMO-activating enzyme, sequence (Q9UBE0 whole entry): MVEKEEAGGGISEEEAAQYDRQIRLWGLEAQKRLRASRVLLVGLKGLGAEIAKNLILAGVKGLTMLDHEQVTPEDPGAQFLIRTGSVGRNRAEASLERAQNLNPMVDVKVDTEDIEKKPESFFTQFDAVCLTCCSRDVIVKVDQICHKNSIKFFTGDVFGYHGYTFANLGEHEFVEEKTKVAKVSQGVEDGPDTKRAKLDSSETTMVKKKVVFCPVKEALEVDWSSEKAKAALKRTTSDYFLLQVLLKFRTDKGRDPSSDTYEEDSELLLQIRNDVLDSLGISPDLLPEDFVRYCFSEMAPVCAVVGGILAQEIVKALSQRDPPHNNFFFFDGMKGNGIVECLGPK
SUMO-activating enzyme, sequence (Q9UBT2 whole entry): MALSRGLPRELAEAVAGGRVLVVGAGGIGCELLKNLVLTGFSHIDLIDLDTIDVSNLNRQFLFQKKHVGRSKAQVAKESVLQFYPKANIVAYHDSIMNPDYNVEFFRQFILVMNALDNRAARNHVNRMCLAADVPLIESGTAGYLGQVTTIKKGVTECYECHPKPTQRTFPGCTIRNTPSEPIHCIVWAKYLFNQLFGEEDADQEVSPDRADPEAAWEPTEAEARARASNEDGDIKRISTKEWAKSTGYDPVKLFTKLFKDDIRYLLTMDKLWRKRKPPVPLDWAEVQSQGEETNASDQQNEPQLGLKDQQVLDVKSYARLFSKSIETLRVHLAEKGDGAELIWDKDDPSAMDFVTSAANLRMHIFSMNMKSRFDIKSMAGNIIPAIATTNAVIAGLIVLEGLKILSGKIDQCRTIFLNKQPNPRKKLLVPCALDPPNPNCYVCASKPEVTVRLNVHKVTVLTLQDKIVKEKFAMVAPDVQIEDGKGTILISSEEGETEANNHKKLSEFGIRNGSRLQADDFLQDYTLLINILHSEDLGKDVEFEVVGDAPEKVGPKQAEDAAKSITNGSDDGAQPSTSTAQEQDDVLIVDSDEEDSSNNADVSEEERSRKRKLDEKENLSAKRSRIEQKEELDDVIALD

[13] = biological target: Trypsin (Sus scrofa, UniProt P00761); test: trypsin protease activity blockade – biochemical, quenched peptide fluorescence, cherry-pick, selectivity assay for Rce1 protease inhibitor project, dose response (AID 488789)
Trypsin, sequence (P00761 whole entry): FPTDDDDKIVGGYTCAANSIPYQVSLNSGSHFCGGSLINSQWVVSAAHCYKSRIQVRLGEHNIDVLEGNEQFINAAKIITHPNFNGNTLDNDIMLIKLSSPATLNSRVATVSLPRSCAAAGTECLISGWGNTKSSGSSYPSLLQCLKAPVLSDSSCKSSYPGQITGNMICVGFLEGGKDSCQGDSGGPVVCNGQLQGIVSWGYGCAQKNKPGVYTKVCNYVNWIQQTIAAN

[14] = biological target: Beta-2 adrenergic receptor (Homo sapiens, UniProt P07550); test: ADRB2 activation measured by internalization – cell-based, FAP fluorogen, flow cytometry, cherry pick 1, dose response (AID 588763); format: functional
Beta-2 adrenergic receptor, sequence (P07550 whole entry): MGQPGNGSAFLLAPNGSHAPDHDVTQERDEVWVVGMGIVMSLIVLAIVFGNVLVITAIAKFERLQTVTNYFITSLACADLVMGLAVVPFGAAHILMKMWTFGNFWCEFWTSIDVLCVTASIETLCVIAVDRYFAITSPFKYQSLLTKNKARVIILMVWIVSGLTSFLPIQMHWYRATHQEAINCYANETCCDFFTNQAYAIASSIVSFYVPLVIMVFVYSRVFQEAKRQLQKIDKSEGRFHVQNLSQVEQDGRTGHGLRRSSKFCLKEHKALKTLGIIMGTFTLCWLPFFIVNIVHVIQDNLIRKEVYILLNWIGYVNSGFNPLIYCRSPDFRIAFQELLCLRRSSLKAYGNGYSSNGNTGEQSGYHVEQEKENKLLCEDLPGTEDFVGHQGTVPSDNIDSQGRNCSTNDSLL

[15] = Trypanosoma cruzi growth suppression in host cells – NIH3T3 host cells, beta-gal luminescence, confirmation (AID 2044); format: functional, cell-based;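 also: intracellular parasites grown in NIH/3T3 mouse fibroblasts as host cells; luminescent beta-galactosidase reporter signal from transgenic T. cruzi replicating inside host cells; inhibitors lower the luminescence signal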
[16] = NIH3T3 cell viability loss – ATP luminescence, mouse fibroblasts, counter-screen, dose response (AID 2010); format: functional, cell-based;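 also: cells exposed to compound for about 90 hours before reading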
[17] = viability of uninfected HEp-2 cells – cell-based, HTS, cytotoxicity control for RSV inhibitor project, dose response (AID 2410); format: functional; conditions: human respiratory syncytial virus
[18] = biological target: T3, Bcl-2-related protein A1 (Mus musculus, UniProt Q07440); format: functional;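 also: confirmatory dose–response counterscreen on Bfl-1, used to check hits from a UBC13 polyubiquitin inhibitor campaign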
T3 sequence (Q07440 whole entry): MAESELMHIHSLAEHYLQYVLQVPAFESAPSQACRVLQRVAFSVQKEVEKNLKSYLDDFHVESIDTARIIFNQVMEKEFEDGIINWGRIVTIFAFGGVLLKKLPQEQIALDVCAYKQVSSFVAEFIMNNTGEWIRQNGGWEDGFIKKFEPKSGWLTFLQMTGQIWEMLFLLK

[19] = biological target: T4, Ubiquitin-conjugating enzyme E2 N (Homo sapiens, UniProt P61088); format: functional
T4 sequence (P61088 whole entry): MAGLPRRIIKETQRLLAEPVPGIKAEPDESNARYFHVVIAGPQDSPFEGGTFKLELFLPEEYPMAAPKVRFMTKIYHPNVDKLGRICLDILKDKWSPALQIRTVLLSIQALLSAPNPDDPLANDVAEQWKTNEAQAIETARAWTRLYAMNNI

[20] = biological target: T4, Ubiquitin-conjugating enzyme E2 N; format: functional; remark: listed apart in the source
[21] = tested on: H9c2; test: cells; format: functional, cell-based; conditions: Rattus norvegicus, H9c2, Myocardium;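 also: confirmatory concentration-response retest of ultra-high-throughput screening hits for modulation of myocardial damage; cell death induced by hydrogen peroxide oxidative stress; compound pretreatment for 60 min then peroxide exposure for 2 h; potency is for protecting the cells against peroxide damage rather than for killing them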
[22] = biological target: Cytochrome P450 3A4 (Homo sapiens, UniProt P08684); conditions: Potency;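 also: confirmatory qHTS run detecting inhibitors and substrates of CYP3A4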
Cytochrome P450 3A4, sequence (P08684 whole entry): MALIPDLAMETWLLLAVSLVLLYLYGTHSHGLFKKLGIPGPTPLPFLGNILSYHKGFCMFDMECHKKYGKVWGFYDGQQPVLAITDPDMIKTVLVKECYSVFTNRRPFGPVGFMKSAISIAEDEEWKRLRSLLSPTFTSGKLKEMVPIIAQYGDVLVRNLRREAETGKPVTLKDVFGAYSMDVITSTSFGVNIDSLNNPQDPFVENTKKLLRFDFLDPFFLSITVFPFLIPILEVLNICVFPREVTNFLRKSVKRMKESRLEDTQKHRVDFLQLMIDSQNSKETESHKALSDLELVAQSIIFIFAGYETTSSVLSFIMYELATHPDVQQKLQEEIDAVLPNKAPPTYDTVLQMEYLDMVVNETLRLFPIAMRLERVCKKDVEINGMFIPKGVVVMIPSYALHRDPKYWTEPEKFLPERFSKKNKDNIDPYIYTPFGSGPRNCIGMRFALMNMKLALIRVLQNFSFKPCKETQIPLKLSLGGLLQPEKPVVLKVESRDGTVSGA

[23] = viability of PTEN-deleted HCT116 cells – cell-based, HCT116 PTEN knockout, dose response (AID 1047); format: functional;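 also: HCT116 colon tumor cells with PTEN knocked out; cells exposed to compound for 60 hours before readout; potency for loss of cell viability measured by luminescence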
[24] = viability of HCT116 lacking mutant beta-catenin – cell-based, human colon tumor, dose response (AID 1045); format: functional;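 also: HCT116 colon tumor cells with beta catenin knocked out; cells exposed to compound for 60 hours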
[25] = Luminescence Cell-Based Dose Retest to Confirm Inhibitors of Cancer Stem Cells. [Related pubchem assays (depositor defined):AID2717, AID2721]; format: functional; conditions: Homo sapiens

## CCCNC(=O)c1ccccc1NC(=O)c1ccccc1N(C)S(=O)(=O)c1ccc(C)cc1
[1]
  EC50: > 59.6 µM (inactive)
[2]
  EC50: > 59.6 µM (inactive)

## O=C(c1ccc2c3c(cccc13)CC2)C1CCCN(Cc2ncc[nH]2)C1 (centres undefined)
[3]
  EC50: > 50 µM (active)

## O=C(COC(=O)CC1CCCC1)Nc1cc2c(cc1Cl)C(=O)c1ccccc1C2=O
[4]
  EC50: 2.27 µM (active)
[5]
  EC50: < 0.1 µM (inconclusive)
[6]
  EC50: 21.7 µM (active)
[7]
  EC50: 0.438 µM (active)
[8]
  IC50: 22.3 µM (active)
[9]
  EC50: 0.497 µM (active)

## Cc1ccc(N(CC(O)CN2C(=O)NC(C)(C)C2=O)S(=O)(=O)c2ccc(C)cc2)cc1 (centres undefined)
[10]
  IC50: > 50 µM (inactive)

## CCSc1nnc(NC(=O)C2Cc3ccccc3CN2C(=O)c2ccco2)s1 (centres undefined)
[11]
  CC50: > 40 µM (active)
[8]
  IC50: 7.47 µM (active)

## CCCCn1c(N)c(C(=O)OCCOC)c2nc3ccccc3nc21
[12]
  IC50: 38 µM (active)

## COc1ccc(CSc2ccc(-c3nc4ccccn4c3NCc3ccccc3)cc2OC)cc1
[13]
  AC50: 4.45 µM (active)
[14]
  EC50: 1.32 µM (active)

## COC(=O)Cc1c(C)nc2nc(-c3ccc(C)cc3)nn2c1O
[10]
  IC50: > 50 µM (inactive)

## COc1ccc(N(CCCN2C(=O)c3cccc4cccc(c34)C2=O)C(=O)c2cccnc2)cc1
[3]
  EC50: > 50 µM (active)
[15]
  EC50: 0.666 µM (active)
[16]
  EC50: > 60 µM (not active)

## CCn1cnc2cc(NCc3ccc(Br)cc3)ccc21
[3]
  EC50: > 50 µM (active)

## CCOC(=O)c1cccc(Nc2nc(-c3cccnc3)nc3ccccc23)c1
[17]
  CC50: 14 µM (active)
[18]
  IC50: > 20 µM (inactive)
[19]
  IC50: 14.5 µM (active)
[20]
  IC50: 15.2 µM (active)
[21]
  IC50: 24 µM (active)

## O=C(/C=C/c1c(F)cccc1Cl)N1CCOCC1
[3]
  EC50: > 50 µM (active)

## COc1ccnc2c1c(=O)n(Cc1ccc(Cl)cc1)c(=O)n2C
[18]
  IC50: 4.03 µM (active)
[19]
  IC50: 11.7 µM (active)
[20]
  IC50: 8.22 µM (active)

## COC(=O)N1[C@H](C)C=C[C@]1(Cc1ccccc1)C(=O)NCc1ccccn1
[22]
  AC50: 3.98 µM (inconclusive)

## Cc1ccc2cc(CN(C(=O)c3cccs3)c3ccccc3)c(O)nc2c1
[10]
  IC50: > 50 µM (inactive)

## CC1CCN(S(=O)(=O)c2ccc3c(c2)C(=NO)c2cc(S(=O)(=O)N4CCC(C)CC4)ccc2-3)CC1
[23]
  EC50: 0.303 µM (active)
[24]
  EC50: 0.265 µM (active)
[25]
  AC50: 0.584 µM (active)
[1]
  EC50: > 59.6 µM (inactive)
[2]
  EC50: > 59.6 µM (inactive)

## C#CCOCCOCCOCCNc1nc(N2CCOCC2)nc(N2CCN(C(=O)[C@H](CCCCN)n3cc(CN)nn3)CC2)n1
[18]
  IC50: > 20 µM (inactive)
[19]
  IC50: 15.3 µM (active)
[20]
  IC50: > 20 µM (inactive)

## Cc1ccc(/C=N/NC(=O)c2cccc(S(=O)(=O)Nc3cccc(Cl)c3)c2)o1
[12]
  IC50: 82.1 µM (active)

## COc1cc(/C=N/NC(=O)CSCc2ccc([N+](=O)[O-])cc2)cc(OC)c1OC
[18]
  IC50: > 20 µM (inactive)
[19]
  IC50: 4.56 µM (active)
[20]
  IC50: 7.06 µM (active)

## C=C1CCC2C(CC2(C)C)C(=C)CC/C1=N/O (centres undefined) [5-HYDROXYIMINOISOCARYOPHYLLENE]
[22]
  AC50: 31.6 µM (inconclusive)
